Results from patent US20200060276A1, “THIAZOLE COMPOUND AND HERBICIDE” (OAT Agrio Co., Ltd., priority 2017, published 2020).

What was measured:
Type in all cases: in vivo
Monochoria vaginalis = test: Test for Herbicidal Effect in Flooding Treatment (#1), MONVA; conditions: flooding treatment at seeding, dose 2 kg/ha, visual observation on day 21
Outline: (§1)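 Sieved soil in cups was flooded and left 24 h before weed seeds were sown. Compounds in acetone, diluted with Tween 80-containing water, were dropped over the whole surface at 2 kg/ha. After 21 days in a glasshouse, growth inhibition was scored visually from 0 (<10%) to 5 (≥90% or complete withering).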

[1] = test system: Echinochloa crus-galli (L.) P. Beauv. var. formosensis Ohwi; test: Test for Herbicidal Effect in Flooding Treatment (#1), ECHDG; conditions: flooding treatment at seeding, dose 2 kg/ha, visual observation on day 21
Outline: as §1

Scirpus juncoides = test: Test for Herbicidal Effect in Flooding Treatment (#1), SCIJU; conditions: flooding treatment at seeding, dose 2 kg/ha, visual observation on day 21
Outline: as §1

[2] = test system: Echinochloa crus-galli (L.) P. Beauv. var. formosensis Ohwi; test: Test for Herbicidal Effect in Flooding Treatment (#2), ECHDG at 2-2.5 leaf stage; conditions: flooding treatment at 2-2.5 leaf stage, dose 0.2 kg/ha, visual observation on day 21
Outline: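 Scoring is a visual 0–5 scale of growth inhibition (0 below 10%, 5 at 90% or more or full withering), taken 21 days after treatment in a glasshouse. Dose was 0.2 kg/ha, applied as acetone/Tween 80 aqueous solution onto flooded soil once seedlings reached the 2–2.5 leaf stage.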

Cyperus microiria = test: Test for Herbicidal Effect in Flooding Treatment (#1), CYMIC; conditions: flooding treatment at seeding, dose 2 kg/ha, visual observation on day 21
Outline: as §1

CCOc1c(Cl)cc(F)cc1CS(=O)(=O)c1ncc(Cl)s1 [Compound 1C-22]
MONVA #1 herbicidal effect (growth inhibition grade) (Monochoria vaginalis): 5 (Growth inhibition effect is equal to or greater than 90%, or complete withering is achieved) | ECHDG #1 herbicidal effect (growth inhibition grade) [1]: 5 (Growth inhibition effect is equal to or greater than 90%, or complete withering is achieved) | SCIJU #1 herbicidal effect (growth inhibition grade) (Scirpus juncoides): 5 (Growth inhibition effect is equal to or greater than 90%, or complete withering is achieved) | ECHDG (2-2.5L) #2 herbicidal effect (growth inhibition grade) [2]: 5 (Growth inhibition effect is equal to or greater than 90%, or complete withering is achieved) | CYMIC #1 herbicidal effect (growth inhibition grade) (Cyperus microiria): 5 (Growth inhibition effect is equal to or greater than 90%, or complete withering is achieved)

CCOc1c(Cl)cc(Cl)cc1CS(=O)(=O)c1ncc(Cl)s1 [Compound 1C-23]
MONVA #1 herbicidal effect (growth inhibition grade) (Monochoria vaginalis): 5 (Growth inhibition effect is equal to or greater than 90%, or complete withering is achieved) | ECHDG #1 herbicidal effect (growth inhibition grade) [1]: 5 (Growth inhibition effect is equal to or greater than 90%, or complete withering is achieved) | SCIJU #1 herbicidal effect (growth inhibition grade) (Scirpus juncoides): 5 (Growth inhibition effect is equal to or greater than 90%, or complete withering is achieved) | ECHDG (2-2.5L) #2 herbicidal effect (growth inhibition grade) [2]: 3 (Growth inhibition effect equal to or greater than 50%, and less than 70%) | CYMIC #1 herbicidal effect (growth inhibition grade) (Cyperus microiria): 5 (Growth inhibition effect is equal to or greater than 90%, or complete withering is achieved)

CCOc1c(C)cc(F)cc1CS(=O)(=O)c1ncc(Cl)s1 [Compound 1C-25]
MONVA #1 herbicidal effect (growth inhibition grade) (Monochoria vaginalis): 5 (Growth inhibition effect is equal to or greater than 90%, or complete withering is achieved) | ECHDG #1 herbicidal effect (growth inhibition grade) [1]: 5 (Growth inhibition effect is equal to or greater than 90%, or complete withering is achieved) | SCIJU #1 herbicidal effect (growth inhibition grade) (Scirpus juncoides): 5 (Growth inhibition effect is equal to or greater than 90%, or complete withering is achieved) | ECHDG (2-2.5L) #2 herbicidal effect (growth inhibition grade) [2]: 5 (Growth inhibition effect is equal to or greater than 90%, or complete withering is achieved) | CYMIC #1 herbicidal effect (growth inhibition grade) (Cyperus microiria): 5 (Growth inhibition effect is equal to or greater than 90%, or complete withering is achieved)

CCOc1c(C)cc(Cl)cc1CS(=O)(=O)c1ncc(Cl)s1 [Compound 1C-26]
MONVA #1 herbicidal effect (growth inhibition grade) (Monochoria vaginalis): 5 (Growth inhibition effect is equal to or greater than 90%, or complete withering is achieved) | ECHDG #1 herbicidal effect (growth inhibition grade) [1]: 5 (Growth inhibition effect is equal to or greater than 90%, or complete withering is achieved) | SCIJU #1 herbicidal effect (growth inhibition grade) (Scirpus juncoides): 5 (Growth inhibition effect is equal to or greater than 90%, or complete withering is achieved) | ECHDG (2-2.5L) #2 herbicidal effect (growth inhibition grade) [2]: 5 (Growth inhibition effect is equal to or greater than 90%, or complete withering is achieved) | CYMIC #1 herbicidal effect (growth inhibition grade) (Cyperus microiria): 5 (Growth inhibition effect is equal to or greater than 90%, or complete withering is achieved)

CCOc1c(F)ccc(F)c1CS(=O)(=O)c1ncc(Cl)s1 [Compound 1C-27]
MONVA #1 herbicidal effect (growth inhibition grade) (Monochoria vaginalis): 5 (Growth inhibition effect is equal to or greater than 90%, or complete withering is achieved) | ECHDG #1 herbicidal effect (growth inhibition grade) [1]: 5 (Growth inhibition effect is equal to or greater than 90%, or complete withering is achieved) | SCIJU #1 herbicidal effect (growth inhibition grade) (Scirpus juncoides): 5 (Growth inhibition effect is equal to or greater than 90%, or complete withering is achieved) | ECHDG (2-2.5L) #2 herbicidal effect (growth inhibition grade) [2]: 5 (Growth inhibition effect is equal to or greater than 90%, or complete withering is achieved) | CYMIC #1 herbicidal effect (growth inhibition grade) (Cyperus microiria): 5 (Growth inhibition effect is equal to or greater than 90%, or complete withering is achieved)

CCOc1c(C)ccc(C)c1CS(=O)(=O)c1ncc(Cl)s1 [Compound 1C-28]
MONVA #1 herbicidal effect (growth inhibition grade) (Monochoria vaginalis): 5 (Growth inhibition effect is equal to or greater than 90%, or complete withering is achieved) | ECHDG #1 herbicidal effect (growth inhibition grade) [1]: 5 (Growth inhibition effect is equal to or greater than 90%, or complete withering is achieved) | SCIJU #1 herbicidal effect (growth inhibition grade) (Scirpus juncoides): 5 (Growth inhibition effect is equal to or greater than 90%, or complete withering is achieved) | ECHDG (2-2.5L) #2 herbicidal effect (growth inhibition grade) [2]: 5 (Growth inhibition effect is equal to or greater than 90%, or complete withering is achieved) | CYMIC #1 herbicidal effect (growth inhibition grade) (Cyperus microiria): 5 (Growth inhibition effect is equal to or greater than 90%, or complete withering is achieved)

CCOc1cc(C)c(Cl)cc1CS(=O)(=O)c1ncc(Cl)s1 [Compound 1C-30]
MONVA #1 herbicidal effect (growth inhibition grade) (Monochoria vaginalis): 5 (Growth inhibition effect is equal to or greater than 90%, or complete withering is achieved) | ECHDG #1 herbicidal effect (growth inhibition grade) [1]: 5 (Growth inhibition effect is equal to or greater than 90%, or complete withering is achieved) | SCIJU #1 herbicidal effect (growth inhibition grade) (Scirpus juncoides): 5 (Growth inhibition effect is equal to or greater than 90%, or complete withering is achieved) | ECHDG (2-2.5L) #2 herbicidal effect (growth inhibition grade) [2]: 5 (Growth inhibition effect is equal to or greater than 90%, or complete withering is achieved) | CYMIC #1 herbicidal effect (growth inhibition grade) (Cyperus microiria): 5 (Growth inhibition effect is equal to or greater than 90%, or complete withering is achieved)

CCOc1cc(F)cc(F)c1CS(=O)(=O)c1ncc(Cl)s1 [Compound 1C-31]
MONVA #1 herbicidal effect (growth inhibition grade) (Monochoria vaginalis): 5 (Growth inhibition effect is equal to or greater than 90%, or complete withering is achieved) | ECHDG #1 herbicidal effect (growth inhibition grade) [1]: 5 (Growth inhibition effect is equal to or greater than 90%, or complete withering is achieved) | SCIJU #1 herbicidal effect (growth inhibition grade) (Scirpus juncoides): 5 (Growth inhibition effect is equal to or greater than 90%, or complete withering is achieved) | ECHDG (2-2.5L) #2 herbicidal effect (growth inhibition grade) [2]: 5 (Growth inhibition effect is equal to or greater than 90%, or complete withering is achieved) | CYMIC #1 herbicidal effect (growth inhibition grade) (Cyperus microiria): 5 (Growth inhibition effect is equal to or greater than 90%, or complete withering is achieved)

CCOc1cc(C)c(Cl)c(C)c1CS(=O)(=O)c1ncc(Cl)s1 [Compound 1C-35]
MONVA #1 herbicidal effect (growth inhibition grade) (Monochoria vaginalis): 5 (Growth inhibition effect is equal to or greater than 90%, or complete withering is achieved) | ECHDG #1 herbicidal effect (growth inhibition grade) [1]: 5 (Growth inhibition effect is equal to or greater than 90%, or complete withering is achieved) | SCIJU #1 herbicidal effect (growth inhibition grade) (Scirpus juncoides): 5 (Growth inhibition effect is equal to or greater than 90%, or complete withering is achieved) | ECHDG (2-2.5L) #2 herbicidal effect (growth inhibition grade) [2]: 5 (Growth inhibition effect is equal to or greater than 90%, or complete withering is achieved) | CYMIC #1 herbicidal effect (growth inhibition grade) (Cyperus microiria): 5 (Growth inhibition effect is equal to or greater than 90%, or complete withering is achieved)

CC(C)Oc1ccccc1CS(=O)(=O)c1ncc(Cl)s1 [Compound 1C-36]
MONVA #1 herbicidal effect (growth inhibition grade) (Monochoria vaginalis): 5 (Growth inhibition effect is equal to or greater than 90%, or complete withering is achieved) | ECHDG #1 herbicidal effect (growth inhibition grade) [1]: 5 (Growth inhibition effect is equal to or greater than 90%, or complete withering is achieved) | SCIJU #1 herbicidal effect (growth inhibition grade) (Scirpus juncoides): 5 (Growth inhibition effect is equal to or greater than 90%, or complete withering is achieved) | ECHDG (2-2.5L) #2 herbicidal effect (growth inhibition grade) [2]: 4 (Growth inhibition effect is equal to or greater than 70%, and less than 90%) | CYMIC #1 herbicidal effect (growth inhibition grade) (Cyperus microiria): 5 (Growth inhibition effect is equal to or greater than 90%, or complete withering is achieved)

O=S(=O)(Cc1cc(Cl)ccc1OC(F)F)c1ncc(Cl)s1 [Compound 1C-39]
MONVA #1 herbicidal effect (growth inhibition grade) (Monochoria vaginalis): 5 (Growth inhibition effect is equal to or greater than 90%, or complete withering is achieved) | ECHDG #1 herbicidal effect (growth inhibition grade) [1]: 5 (Growth inhibition effect is equal to or greater than 90%, or complete withering is achieved) | SCIJU #1 herbicidal effect (growth inhibition grade) (Scirpus juncoides): 5 (Growth inhibition effect is equal to or greater than 90%, or complete withering is achieved) | ECHDG (2-2.5L) #2 herbicidal effect (growth inhibition grade) [2]: 5 (Growth inhibition effect is equal to or greater than 90%, or complete withering is achieved) | CYMIC #1 herbicidal effect (growth inhibition grade) (Cyperus microiria): 5 (Growth inhibition effect is equal to or greater than 90%, or complete withering is achieved)

O=S(=O)(Cc1cc(Br)ccc1OC(F)F)c1ncc(Cl)s1 [Compound 1C-40]
MONVA #1 herbicidal effect (growth inhibition grade) (Monochoria vaginalis): 5 (Growth inhibition effect is equal to or greater than 90%, or complete withering is achieved) | ECHDG #1 herbicidal effect (growth inhibition grade) [1]: 5 (Growth inhibition effect is equal to or greater than 90%, or complete withering is achieved) | SCIJU #1 herbicidal effect (growth inhibition grade) (Scirpus juncoides): 5 (Growth inhibition effect is equal to or greater than 90%, or complete withering is achieved) | ECHDG (2-2.5L) #2 herbicidal effect (growth inhibition grade) [2]: 5 (Growth inhibition effect is equal to or greater than 90%, or complete withering is achieved) | CYMIC #1 herbicidal effect (growth inhibition grade) (Cyperus microiria): 5 (Growth inhibition effect is equal to or greater than 90%, or complete withering is achieved)

O=S(=O)(Cc1cc(Br)ccc1OC(F)(F)F)c1ncc(Cl)s1 [Compound 1C-47]
MONVA #1 herbicidal effect (growth inhibition grade) (Monochoria vaginalis): 5 (Growth inhibition effect is equal to or greater than 90%, or complete withering is achieved) | ECHDG #1 herbicidal effect (growth inhibition grade) [1]: 5 (Growth inhibition effect is equal to or greater than 90%, or complete withering is achieved) | SCIJU #1 herbicidal effect (growth inhibition grade) (Scirpus juncoides): 5 (Growth inhibition effect is equal to or greater than 90%, or complete withering is achieved) | ECHDG (2-2.5L) #2 herbicidal effect (growth inhibition grade) [2]: 4 (Growth inhibition effect is equal to or greater than 70%, and less than 90%) | CYMIC #1 herbicidal effect (growth inhibition grade) (Cyperus microiria): 5 (Growth inhibition effect is equal to or greater than 90%, or complete withering is achieved)
